Data reported in patent US20080051466A1, “Isoalpha acid based protein kinase modulation cancer treatment” (Metaproteomics, LLC, priority 2006, published 2008).

Tests used:
Test in all cases: KinaseProfiler Assay
Type in all cases: biochemical
EphA8 = biological target: T1, EphA8 (Homo sapiens, UniProt P29322); details: read-out: EphA8, % of Control
T1 sequence (P29322 28-1005): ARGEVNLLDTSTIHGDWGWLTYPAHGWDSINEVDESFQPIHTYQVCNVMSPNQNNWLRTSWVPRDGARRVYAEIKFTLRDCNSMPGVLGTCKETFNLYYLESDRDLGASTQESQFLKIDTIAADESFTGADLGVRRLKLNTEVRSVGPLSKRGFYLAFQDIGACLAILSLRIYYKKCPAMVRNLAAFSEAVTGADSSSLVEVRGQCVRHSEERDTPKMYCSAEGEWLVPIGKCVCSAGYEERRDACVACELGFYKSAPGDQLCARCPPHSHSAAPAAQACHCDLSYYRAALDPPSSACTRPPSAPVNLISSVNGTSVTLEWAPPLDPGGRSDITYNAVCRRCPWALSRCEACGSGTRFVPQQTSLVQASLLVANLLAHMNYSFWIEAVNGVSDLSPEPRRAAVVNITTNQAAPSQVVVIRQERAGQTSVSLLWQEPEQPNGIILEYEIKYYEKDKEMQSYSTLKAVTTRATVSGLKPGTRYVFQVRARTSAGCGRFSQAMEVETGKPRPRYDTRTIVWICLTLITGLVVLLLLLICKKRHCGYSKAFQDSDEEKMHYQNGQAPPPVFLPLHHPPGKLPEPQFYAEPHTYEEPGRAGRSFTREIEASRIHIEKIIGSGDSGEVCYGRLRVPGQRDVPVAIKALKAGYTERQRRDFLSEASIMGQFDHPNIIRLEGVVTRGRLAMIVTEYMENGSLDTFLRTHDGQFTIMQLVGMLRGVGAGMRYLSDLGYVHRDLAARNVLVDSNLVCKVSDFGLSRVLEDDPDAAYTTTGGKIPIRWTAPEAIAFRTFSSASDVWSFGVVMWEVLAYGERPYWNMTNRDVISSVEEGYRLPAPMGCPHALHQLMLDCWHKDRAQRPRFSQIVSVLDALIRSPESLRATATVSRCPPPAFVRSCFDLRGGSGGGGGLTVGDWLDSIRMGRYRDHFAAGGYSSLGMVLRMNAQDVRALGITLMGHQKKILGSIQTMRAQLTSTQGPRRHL

Bmx = Bmx (Homo sapiens, UniProt P51813); details: 25 ug/ml; read-out: Bmx, % of Control
Chain of Bmx (P51813 whole entry): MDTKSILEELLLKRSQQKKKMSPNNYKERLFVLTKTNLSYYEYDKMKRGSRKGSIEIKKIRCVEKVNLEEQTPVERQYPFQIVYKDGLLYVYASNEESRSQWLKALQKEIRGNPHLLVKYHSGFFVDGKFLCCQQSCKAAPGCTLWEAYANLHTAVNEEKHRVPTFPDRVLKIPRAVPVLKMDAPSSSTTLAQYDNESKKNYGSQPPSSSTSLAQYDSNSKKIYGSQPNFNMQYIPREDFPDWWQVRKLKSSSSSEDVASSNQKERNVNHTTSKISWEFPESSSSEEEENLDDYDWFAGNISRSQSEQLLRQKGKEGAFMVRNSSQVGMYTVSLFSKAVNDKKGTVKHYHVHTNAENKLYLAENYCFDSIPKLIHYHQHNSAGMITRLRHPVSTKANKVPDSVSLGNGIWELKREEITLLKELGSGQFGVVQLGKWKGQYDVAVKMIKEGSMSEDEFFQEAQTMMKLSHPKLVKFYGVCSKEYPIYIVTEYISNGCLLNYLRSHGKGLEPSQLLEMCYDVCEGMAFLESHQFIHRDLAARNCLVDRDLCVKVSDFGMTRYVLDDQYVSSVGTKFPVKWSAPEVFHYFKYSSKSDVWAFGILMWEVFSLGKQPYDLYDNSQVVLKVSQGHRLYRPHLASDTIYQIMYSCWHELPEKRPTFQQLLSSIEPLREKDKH

PrKX = PrKX (Homo sapiens, UniProt P51817); details: read-out: PrKX, % of Control
Chain of PrKX (P51817 whole entry): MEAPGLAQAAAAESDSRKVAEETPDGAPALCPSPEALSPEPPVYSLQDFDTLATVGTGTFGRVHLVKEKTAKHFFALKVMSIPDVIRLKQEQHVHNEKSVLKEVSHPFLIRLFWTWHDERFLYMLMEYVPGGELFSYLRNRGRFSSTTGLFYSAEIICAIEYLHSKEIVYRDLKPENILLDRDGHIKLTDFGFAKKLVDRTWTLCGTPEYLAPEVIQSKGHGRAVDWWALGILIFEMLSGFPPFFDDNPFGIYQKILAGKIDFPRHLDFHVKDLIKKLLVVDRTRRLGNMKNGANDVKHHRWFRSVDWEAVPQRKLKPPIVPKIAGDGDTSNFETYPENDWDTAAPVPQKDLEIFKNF

EphB1 = biological target: T2, EphB1 (Homo sapiens, UniProt P54762); details: read-out: EphB1, % of Control
T2 sequence (P54762 18-984): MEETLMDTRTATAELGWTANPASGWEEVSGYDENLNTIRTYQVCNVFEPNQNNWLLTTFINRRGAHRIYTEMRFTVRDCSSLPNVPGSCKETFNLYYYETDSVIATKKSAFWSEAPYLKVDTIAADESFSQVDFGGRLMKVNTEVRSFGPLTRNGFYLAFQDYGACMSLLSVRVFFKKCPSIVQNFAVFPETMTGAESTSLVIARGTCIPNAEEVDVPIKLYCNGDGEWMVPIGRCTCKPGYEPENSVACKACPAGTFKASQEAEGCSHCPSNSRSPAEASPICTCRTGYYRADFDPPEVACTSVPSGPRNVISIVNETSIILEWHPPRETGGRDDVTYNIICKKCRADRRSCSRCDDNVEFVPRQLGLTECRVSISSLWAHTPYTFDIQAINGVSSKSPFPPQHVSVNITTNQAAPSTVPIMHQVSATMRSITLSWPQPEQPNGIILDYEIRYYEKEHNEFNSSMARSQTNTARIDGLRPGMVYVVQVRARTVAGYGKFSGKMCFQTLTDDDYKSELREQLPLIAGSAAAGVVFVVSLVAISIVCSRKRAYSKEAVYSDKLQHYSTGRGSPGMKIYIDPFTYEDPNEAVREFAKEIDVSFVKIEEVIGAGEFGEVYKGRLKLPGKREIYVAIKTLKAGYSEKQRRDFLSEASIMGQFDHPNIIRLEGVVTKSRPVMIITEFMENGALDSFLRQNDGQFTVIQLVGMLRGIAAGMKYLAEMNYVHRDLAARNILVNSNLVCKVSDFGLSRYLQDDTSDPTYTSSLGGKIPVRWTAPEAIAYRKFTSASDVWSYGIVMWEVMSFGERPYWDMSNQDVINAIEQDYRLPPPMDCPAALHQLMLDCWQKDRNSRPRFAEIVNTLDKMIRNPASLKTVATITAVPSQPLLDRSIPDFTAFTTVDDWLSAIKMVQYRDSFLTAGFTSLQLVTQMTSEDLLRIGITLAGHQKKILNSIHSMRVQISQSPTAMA

## COc1cc(O)c(CC=C(C)C)c(O)c1C(=O)/C=C/c1ccc(O)cc1 [Xanthohumol, xanthohumol]
EphA8; 1 ug/ml
  remaining activity at 1 µg/mL: 103%
EphA8; 5 ug/ml
  remaining activity at 5 µg/mL: 92%
EphA8; 25 ug/ml
  remaining activity at 25 µg/mL: 29%
EphA8; 50 ug/ml
  remaining activity at 50 µg/mL: 19%
Bmx
  remaining activity at 25 µg/mL: 22%
PrKX; 1 ug/ml
  remaining activity at 1 µg/mL: 92%
PrKX; 50 ug/ml
  remaining activity at 50 µg/mL: 3%
EphB1; 1 ug/ml
  remaining activity at 1 µg/mL: 92%
EphB1; 25 ug/ml
  remaining activity at 25 µg/mL: 175%
EphB1; 50 ug/ml
  remaining activity at 50 µg/mL: 161%
